# Columns and labels:
# Meloidogyne incognita = assay: M. incognita miniaturized greenhouse assay (cucumber seedling in sand, root galling); type: in vivo; conditions: average of triplicate gall rating, scale 0=0-5%, 1=6-20%, 2=21-50%, 3=51-100% root mass galled, 10 to 12 days after inoculation
# Protocol: The test compound is dissolved in an acetone solution and added to water. A sprouted cucumber seedling is placed into a vial with dry sand and the water-chemical solution is added immediately. Twenty four hours later Meloidogyne incognita eggs are added to the vials and 10 to 12 days later the roots are evaluated for nematode galling.
# Cucumber seeds are sprouted for 3 days in moist paper towels. Acceptable sprouts should be 3 to 4 cm long with several lateral roots just emerging. Stock solutions of chemistry are prepared in a mixture of acetone and Triton X100 (412 mg in 500 mL) to a final concentration of 5 mg/mL. The chemical stock solution is then added to 10 mL deionized water plus 0.015% Triton X100 and mixed thoroughly. This is enough to test each condition in triplicate. Ten mL dry sand is added to each vial. At this time the solubility of the chemistry is visually determined and recorded as either ppt (large precipitates) or cloudy (fine precipitates). Seedlings are planted by tilting the vial and laying the seedling in the correct orientation so that the cotyledons are just above the sand and then tilting back to cover the radicles with sand. 3.3 ml water/chemical mix is added to each vial and the vials placed in racks under fluorescent light banks. The vials are inoculated two days after planting by adding 500 vermiform M. incognita eggs to each vial in 50 uL of deionized or spring water. The vials are then kept under the fluorescent lamps at ambient room temperature and watered as needed with 1 mL deionized water, usually twice during duration of test. Harvest of the cucumber plants is done 10 to 12 days after inoculation by washing sand off the roots. A root gall rating and visual phytotoxicity rating is assigned using the following scales: Gall rating scale (Gall: % root mass galled): 0=0-5%; 1=6-20%; 2=21-50%; and 3=51-100%. The average of the triplicate gall rating is then calculated: green=0.00-0.33 (no galls); yellow=0.67-1.33 (mild galling); orange=1.67-2.33 (moderate galling); red=2.67-3.00 (severe galling). Visual phytotoxicity scale is also assigned (Vis. tox; visual reduction in root mass compared to the control): rs1=mild stunting; rs2=moderate stunting; rs3=severe stunting.
# H. contortus = H. contortus larval development assay; type: cell-based; conditions: at 72 hours; hatching and larval movement
# Protocol: The assay was performed essentially as described in: Hubert J, Kerboeuf D. A new method for culture of larvae used in diagnosis of ruminant gastrointestinal strongylosis: comparison with fecal cultures. Can J Comp Med. 1984 48(1):63-71. H. contortus eggs were obtained from Myers Parasitology (Magnolia, Ky.). The test compounds were solubilized in DMSO to create […] stock solutions. 2 ul of compound at various concentrations followed by 200 ul of molten agar were mixed into the wells. Approximately 50 eggs were placed in the well and incubated for 24 hours. After this time, >50% of the eggs were hatched in DMSO controls. After 24 hr, 100 ul of growth medium (Earle's salt solution, 1% yeast extract, 0.9% saline, and sodium bicarbonate to pH 7) containing compound was added to allow larval feeding. After 48 hr in growth medium (total of 72 hours) the wells were evaluated for hatching and larval movement.
# C. elegans = C. elegans well test (contact assay); type: cell-based; conditions: L1 worms, 20° C.
# Protocol: C. elegans: Various compounds were tested for nematicidal activity against C. elegans using contact assays in wells. The assays were performed as described below. The test compounds were solubilized in DMSO at 10 mg/ml to create 100× stock solutions. A dilution series was created by diluting the stock solution with DMSO. For each well assay 4 ul of the appropriate dilution is added to a well of a test plate. A 400 ul aliquot of bacterial stock (in M9 buffer with ampicillin) is added to each well of the test plate. Worms are added and the test plate placed on a rotary shaker incubated at 20° C. Worms are examined and scored at 24 hrs, 48 hrs and 72 hours. L1 worms used in the assay are prepared by plating eggs on a plate without a bacterial feeding layer. The eggs hatch and arrest at the L1 stage. This L1 stage population is then used to create a stock for the experiments. A 25 ul aliquot of worms is added to each well in the assay.
# root knot nematode (RKN) = assay: RKN greenhouse soil assay on cucumber plants; type: in vivo, M. incognita; conditions: 7 day treatment, rated 14 days after egg inoculation
# From the text: Cucumber seeds are planted in a sandy soil mixture in two inch square plastic pots. When the cotyledons are fully opened and just as the first leaf begins to emerge, usually 7 days after planting, chemistry for the 7-day treatment is applied. One week later the chemistry for the 0 day treatment is applied. Separate plants are used for each application. The plants are generally in the 1-2 leaf stage now. At least four hours after the chemistry application the pots are inoculated with root knot nematode (RKN) eggs. Plants are rated for galling 14 days after the egg inoculation.
# (§1) One milligram of chemistry per four pots is equal to one kilogram per hectare of chemical. A standard test uses four replications. For rates above 2 kg/ha, the desired amount of chemical is weighed into a 30 ml vial (example: 8 kg/ha rate=8 mg chemical in 30 ml vial). The chemical is dissolved in 2 ml of appropriate solvent, generally acetone. For rates below 2 kg/ha, 2 milligrams of chemistry is weighed into the vial and dissolved in 2 ml of the solvent. The appropriate amount of chemical concentrate is then pipetted into a separate 30 ml vial and solvent is added to bring the volume to 2 ml (example 0.5 kg/ha=0.5 ml of concentrate+1.5 ml solvent). Each dissolved concentrate is then brought to a total of 20 milliliters using 0.05% Triton X 100 surfactant solution.
# (§2) Pots to be treated are moist but not saturated. To each of four pots, five milliliters of the appropriate chemical solution is pipetted to the media surface making sure to avoid contact with the base of the plant. Immediately following chemical application, using a mist nozzle, the pot surface is wetted sufficiently to saturate the pot watering in the chemistry. The chemical application is done in the morning.
# (§3) Nematode eggs, either SCN or RKN, are added to distilled water to create a concentration of […] of water. At least four hours after chemical treatment (0 day testing) or 1 week later (7 day longevity testing) the eggs are applied to the treated pots plus non-treated check plants. A small hole about 1 cm deep is punched into the pot surface. One milliliter of the nematode egg slurry is pipetted into the hole. Immediately afterwards the hole is gently covered. Watering of the test plants is then restricted to only water as needed to prevent wilt for a period of 24 hours. After the 24 hour restricted watering, normal sub-irrigation watering is done for the duration of the test.
# [1] = system: soybean cyst nematode (SCN); assay: SCN greenhouse soil assay on soybean plants; type: in vivo, H. glycines; conditions: 0 day treatment, 0.25 kg/ha rate, harvested 28 days after egg inoculation
# From the text: Soybeans seeds are planted in 100% sand in two inch square plastic pots.
# Chemical treatment is done when the soybeans show the first trifoliate beginning to emerge about 10 to 12 days after planting. At least four hours after chemical application the nematode soybean cyst nematode (SCN) eggs are applied and 28 days after the egg inoculation the test is harvested.
# as §1, §2, §3
# [2] = classification by the US Environmental Protection Agency; cited from earlier work
# [3] = 1 ppm, letters a-d mark separate tests
EC50 (C. elegans; 1 day),EC50 (C. elegans; 2 days),EC50 (C. elegans; 3 days),SMILES,gall ratings (Meloidogyne incognita; [3]),gall ratings (Meloidogyne incognita; 8 ppm),EC50 (H. contortus),percent control (galling reduction) relative to the control blank treatment (root knot nematode (RKN); 0.1 kg/ha rate),percent control (galling reduction) relative to the control blank treatment (root knot nematode (RKN); 0.25 kg/ha rate),percent control (cyst reduction) relative to the control blank treatment [1],toxicity class [2]
,,,c1ccc(-c2nnn(-c3cccs3)n2)cc1 [compound 6],1.33,0.00,,,,,
,,,c1ccc(-n2nnc(-n3cccc3)n2)cc1 [compound 7],1.67,0.33,,,,,
> 50 ppm,0.8 ppm,0.8 ppm,c1ccc(-n2nnc(-c3cccs3)n2)cc1 [compound 2],0.67,0.33,6.3-25 ppm,47%,53%,52%^,
,,,Cn1cccc1-c1nnn(-c2ccccc2)n1 [compound 5],2.33,0.00,,,,,
,,,"CNC(=O)O/N=C(\SC)C(=O)N(C)C [Oxamyl, reference compound]",,,,,,75%^,Class I
0.8 ppm,0.8 ppm,0.9 ppm,Clc1ccc(-n2nnc(-c3cccs3)n2)cc1 [compound 1],0.67,0,<6.3 ppm,89%,92%,24%^,
,,,Clc1ccc(-n2nnc(N3CCCC3)n2)cc1 [compound 4],1.33,0.33,,,,,
0.8/0.8/0.8 ppm,0.8/0.8/0.8 ppm,0.8/0.8/0.8 ppm,Cc1cc(Cl)ccc1-n1nnc(-c2ccco2)n1 [compound 3],1.33,0,<6.3 ppm,,,44%^,

# Reference: patent US9907306B2, “Compositions and methods for controlling nematode pests” (Monsanto Technology LLC, priority 2010, dated 2018)
